Test results from patent US8247211B2, “Glycopeptide antibiotics” (American Cyanamid Company, priority 2001, dated 2012).

Key:
Escherichia coli = assay: In vitro antibacterial evaluation: minimum inhibitory concentration (MIC), broth dilution method; type: cell-based
Procedure, shortened: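 Inoculum: 5×10^5 CFU/mL. Range: 64-0.06 μg/mL. Medium: Muller-Hinton II […]; NCCLS M7-A2 broth dilution. Endpoint: lowest concentration inhibiting growth. Strains include methicillin-, penicillin- and/or vancomycin-resistant clinical isolates.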

Staphylococcus sp. = assay: as above; type: cell-based; details: broth dilution, 18 hours at 35° C.
Procedure, shortened: (§1)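 Using Muller-Hinton II […] and an inoculum of 5×10^5 CFU/mL, antibiotic dilutions from 64 down to 0.06 μg/mL were tested following NCCLS M7-A2. The MIC is the lowest concentration inhibiting growth, including in methicillin-, penicillin- or vancomycin-resistant clinical isolates.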

Streptococcus sp. = assay: as above; type: cell-based
Procedure, shortened: as §1

Enterococcus sp. = assay: as above; type: cell-based; details: for MIC Enterococcus faecalis (ATCC 29212): strain ATCC 29212; for MIC Enterococcus faecium (GC 2243): strain GC 2243; for MIC Enterococcus faecalis (GC 4552): strain GC 4552; for MIC Enterococcus faecalis (GC 4553): strain GC 4553; for MIC Enterococcus faecalis (GC 4554): strain GC 4554; for MIC Enterococcus faecium (GC 4556): strain GC 4556; for MIC Enterococcus faecium (GC 4557): strain GC 4557; for MIC Enterococcus avium (GC 4558): strain GC 4558; for MIC Enterococcus faecalis (GC 6189): strain GC 6189
Procedure, shortened: as §1

[1] = tested on: Staphylococcus aureus-SMITH (GC 4543); assay: Acute lethal infection in mice (ED50); type: in vivo; details: female CD-1 mice, intraperitoneal challenge, intravenous dose 30 min. after infection, 7 day survival ratios
Procedure, shortened: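 IP bacterial challenge, female CD-1 mice; inoculum lethal to untreated controls in 24-48 hr. IV dosing in saline or 5% dextrose 30 min post-infection, 5 mice/dose. ED50 from 7-day survival, 3 tests pooled.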

[2] = Anatomic pathology (heart and kidney histopathology) in mice; type: in vivo, CD-1 mice; details: 20 mg/kg intravenously daily for 9 days, microscopic histopathology on day 10
Procedure: 20-day-old CD-1 mice were divided into a vehicle control group (5 mice) and a treatment group (5 mice). Samples of glycopeptide antibiotics were administered at 20 mg/kg intravenously daily for 9 days.
Samples of tissues from necropsied mice were formalin-fixed, paraffin-embedded, sectioned, stained with hematoxylin and eosin, and examined microscopically. Histopathologic findings were recorded. These findings were subjectively graded on a scale corresponding to slight, mild, moderate, marked and severe as compared to untreated controls.

CC(c1ccccc1)C1NC(=O)CNC(=O)C(CO)NC(=O)C(C(O)C2CN(Cc3ccc4ccccc4c3)C(=N)N2C2OC(CO)C(O)C(O)C2O)NC(=O)C(C(O)C2CNC(=N)N2)NC(=O)C(Cc2ccc(OC3OC(CO)C(OC4OC5COC6(OC5C(O)C4O)C4CC5CC(C4)CC6C5)C(O)C3O)cc2)NC1=O (centres unmarked) [Example 78]
2 µg/mL: MIC Coagulase Negative Staphylococcus (GC 6257) (Staphylococcus sp.) | MIC Streptococcus pneumoniae (GC 4565) (Streptococcus sp.; Streptococcus pneumoniae (GC 4565), broth dilution, 18 hours at 35° C.) | MIC Streptococcus pneumoniae (GC 4565) (Streptococcus sp.; strain GC 4565) | MIC Enterococcus faecium (GC 4557) (Enterococcus sp.)
4 µg/mL: MIC Escherichia coli (GC 4560) (Escherichia coli; strain GC 4560) | MIC Coagulase Negative Staphylococcus (GC 4547) (Staphylococcus sp.) | MIC Coagulase Negative Staphylococcus (GC 4548) (Staphylococcus sp.) | MIC Staphylococcus aureus (GC 4541) (Staphylococcus sp.) | MIC Staphylococcus aureus SMITH (GC 4543) (Staphylococcus sp.) | MIC Staphylococcus haemolyticus (GC 4546) (Staphylococcus sp.) | MIC Staphylococcus aureus-SMITH (GC 4543) (Staphylococcus sp.; strain SMITH GC 4543) | MIC Enterococcus avium (GC 4558) (Enterococcus sp.)
0.5 µg/mL: MIC Streptococcus pyogenes (GC 4563) (Streptococcus sp.; Streptococcus pyogenes (GC 4563), broth dilution, 18 hours at 35° C.) | MIC Streptococcus pyogenes (GC 4563) (Streptococcus sp.; strain GC 4563)
++: Anatomical Pathology (Day 10), Kidney [2]
2 mg/kg: median effective dose (ED50), Staphylococcus aureus-SMITH (GC 4543) [1]
8 µg/mL: MIC Coagulase Negative Staphylococcus (GC 4549) (Staphylococcus sp.) | MIC Coagulase Negative Staphylococcus (GC 4551) (Staphylococcus sp.) | MIC Staphylococcus aureus (ATCC 29213) (Staphylococcus sp.) | MIC Staphylococcus aureus (GC 1131) (Staphylococcus sp.) | MIC Staphylococcus aureus (GC 3051) (Staphylococcus sp.) | MIC Staphylococcus aureus (GC 3053) (Staphylococcus sp.) | MIC Staphylococcus aureus (GC 4542) (Staphylococcus sp.) | MIC Staphylococcus aureus (GC 4544) (Staphylococcus sp.) | MIC Staphylococcus aureus (GC 4545) (Staphylococcus sp.) | MIC Enterococcus faecalis (ATCC 29212) (Enterococcus sp.) | MIC Enterococcus faecium (GC 2243) (Enterococcus sp.) | MIC Enterococcus faecalis (GC 4552) (Enterococcus sp.) | MIC Enterococcus faecalis (GC 4553) (Enterococcus sp.)
0: Anatomical Pathology (Day 10), Heart [2]
0.25 µg/mL: MIC Streptococcus pneumoniae (GC 1894) (Streptococcus sp.; Streptococcus pneumoniae (GC 1894), broth dilution, 18 hours at 35° C.) | MIC Streptococcus pneumoniae (GC 1894) (Streptococcus sp.; strain GC 1894)
16 µg/mL: MIC Enterococcus faecalis (GC 2242) (Enterococcus sp.; Enterococcus faecalis (GC 2242), broth dilution, 18 hours at 35° C.) | MIC Enterococcus faecalis (GC 2691) (Enterococcus sp.; Enterococcus faecalis (GC 2691), broth dilution, 18 hours at 35° C.) | MIC Enterococcus faecalis (GC 3059) (Enterococcus sp.; Enterococcus faecalis (GC 3059), broth dilution, 18 hours at 35° C.) | MIC Enterococcus faecalis (GC 2242) (Enterococcus sp.; strain GC 2242) | MIC Enterococcus faecalis (GC 2691) (Enterococcus sp.; strain GC 2691) | MIC Enterococcus faecalis (GC 3059) (Enterococcus sp.; strain GC 3059) | MIC Enterococcus faecalis (GC 4554) (Enterococcus sp.) | MIC Enterococcus faecium (GC 4556) (Enterococcus sp.) | MIC Enterococcus faecalis (GC 6189) (Enterococcus sp.)
1 µg/mL: MIC Streptococcus agalactiae (GC 4564) (Streptococcus sp.; Streptococcus agalactiae (GC 4564), broth dilution, 18 hours at 35° C.) | MIC Streptococcus pneumoniae (ATCC 6301) (Streptococcus sp.; Streptococcus pneumoniae (ATCC 6301), broth dilution, 18 hours at 35° C.) | MIC Streptococcus pneumoniae (ATCC 6301) (Streptococcus sp.; strain ATCC 6301) | MIC Streptococcus agalactiae (GC 4564) (Streptococcus sp.; strain GC 4564)

CC(c1ccccc1)C1NC(=O)CNC(=O)C(CO)NC(=O)C(C(O)C2CNC(=N)N2C2OC(CO)C(O)C(O)C2O)NC(=O)C(C(O)C2CNC(=N)N2)NC(=O)C(Cc2ccc(OC3OC(CO)C(OC4OC5COC(c6ccc(C(=O)O)cc6)OC5C(O)C4O)C(O)C3O)cc2)NC1=O (stereo not drawn) [Example 141, Cyclo[glycyl-β-methylphenylalanyl-O-[4-O-[4,6-O-(4-carboxybenzylidene)hexopyranosyl]-hexopyranosyl]tyrosyl-3-(2-iminoimidazolidin-4-yl)seryl-3-(3-hexopyranosyl-2-iminoimidazolidin-4-yl)serylseryl]]
+++: Anatomical Pathology (Day 10), Kidney [2]
64 µg/mL: MIC Enterococcus faecium (GC 4557) (Enterococcus sp.)
0: Anatomical Pathology (Day 10), Heart [2]
>8: median effective dose (ED50), Staphylococcus aureus-SMITH (GC 4543) [1]
>64 µg/mL: MIC Escherichia coli (ATCC 25922) (Escherichia coli; strain ATCC 25922) | MIC Escherichia coli (GC 4559) (Escherichia coli; strain GC 4559) | MIC Escherichi coli (GC 4560) (Escherichia coli; strain GC 4560) | MIC Coagulase Negative Staphylococcus (GC 4547) (Staphylococcus sp.; 5×10^5 CFU/mL) | MIC Coagulase Negative Staphylococcus (GC 4548) (Staphylococcus sp.; 5×10^5 CFU/mL) | MIC Coagulase Negative Staphylococcus (GC 4549) (Staphylococcus sp.; 5×10^5 CFU/mL) | MIC Coagulase Negative Staphylococcus (GC 4551) (Staphylococcus sp.; 5×10^5 CFU/mL) | MIC Coagulase Negative Staphylococcus (GC 6257) (Staphylococcus sp.; 5×10^5 CFU/mL) | MIC Staphylococcus aureus (ATCC 29213) (Staphylococcus sp.; 5×10^5 CFU/mL) | MIC Staphylococcus aureus (GC 1131) (Staphylococcus sp.; 5×10^5 CFU/mL) | MIC Staphylococcus aureus (GC 3051) (Staphylococcus sp.; 5×10^5 CFU/mL) | MIC Staphylococcus aureus (GC 3053) (Staphylococcus sp.; 5×10^5 CFU/mL) | MIC Staphylococcus aureus (GC 4541) (Staphylococcus sp.; 5×10^5 CFU/mL) | MIC Staphylococcus aureus (GC 4542) (Staphylococcus sp.; 5×10^5 CFU/mL) | MIC Staphylococcus aureus (GC 4544) (Staphylococcus sp.; 5×10^5 CFU/mL) | MIC Staphylococcus aureus (GC 4545) (Staphylococcus sp.; 5×10^5 CFU/mL) | MIC Staphylococcus aureus-SMITH (GC 4543) (Staphylococcus sp.; 5×10^5 CFU/mL) | MIC Staphylococcus haemolyticus (GC 4546) (Staphylococcus sp.; 5×10^5 CFU/mL) | MIC Staphylococcus aureus (ATCC 29213) (Staphylococcus sp.; strain ATCC 29213) | MIC Staphylococcus aureus (GC 1131) (Staphylococcus sp.; strain GC 1131) | MIC Staphylococcus aureus (GC 3051) (Staphylococcus sp.; strain GC 3051) | MIC Staphylococcus aureus (GC 3053) (Staphylococcus sp.; strain GC 3053) | MIC Staphylococcus aureus (GC 4541) (Staphylococcus sp.; strain GC 4541) | MIC Staphylococcus aureus (GC 4542) (Staphylococcus sp.; strain GC 4542) | MIC Staphylococcus aureus-SMITH (GC 4543) (Staphylococcus sp.; strain GC 4543) | MIC Staphylococcus aureus (GC 4544) (Staphylococcus sp.; strain GC 4544) | MIC Staphylococcus aureus (GC 4545) (Staphylococcus sp.; strain GC 4545) | MIC Staphylococcus haemolyticus (GC 4546) (Staphylococcus sp.; strain GC 4546) | MIC Coagulase Negative Staphylococcus (GC 4547) (Staphylococcus sp.; strain GC 4547) | MIC Coagulase Negative Staphylococcus (GC 4548) (Staphylococcus sp.; strain GC 4548) | MIC Coagulase Negative Staphylococcus (GC 4549) (Staphylococcus sp.; strain GC 4549) | MIC Coagulase Negative Staphylococcus (GC 4551) (Staphylococcus sp.; strain GC 4551) | MIC Coagulase Negative Staphylococcus (GC 6257) (Staphylococcus sp.; strain GC 6257) | MIC Streptococcus pneumoniae (ATCC 6301) (Streptococcus sp.; strain ATCC 6301) | MIC Streptococcus pneumoniae (GC 1894) (Streptococcus sp.; strain GC 1894) | MIC Streptococcus pyogenes (GC 4563) (Streptococcus sp.; strain GC 4563) | MIC Streptococcus agalactiae (GC 4564) (Streptococcus sp.; strain GC 4564) | MIC Streptococcus pneumoniae (GC 4565) (Streptococcus sp.; strain GC 4565) | MIC Enterococcus faecalis (ATCC 29212) (Enterococcus sp.) | MIC Enterococcus faecalis (GC 2242) (Enterococcus sp.; strain GC 2242) | MIC Enterococcus faecium (GC 2243) (Enterococcus sp.) | MIC Enterococcus faecalis (GC 2691) (Enterococcus sp.; strain GC 2691) | MIC Enterococcus faecalis (GC 3059) (Enterococcus sp.; strain GC 3059) | MIC Enterococcus faecalis (GC 4552) (Enterococcus sp.) | MIC Enterococcus faecalis (GC 4553) (Enterococcus sp.) | MIC Enterococcus faecalis (GC 4554) (Enterococcus sp.) | MIC Enterococcus faecium (GC 4556) (Enterococcus sp.) | MIC Enterococcus avium (GC 4558) (Enterococcus sp.) | MIC Enterococcus faecalis (GC 6189) (Enterococcus sp.)
